Measurements taken from ChEMBL document CHEMBL4229333, “Effects of rigidity on the selectivity of protein kinase inhibitors” (Eur J Med Chem, 2018).

Experiments:
[1] = biological target: Serine/threonine-protein kinase PAK 1 (Homo sapiens) (UniProt Q13153); test: Inhibition of PAK1 (unknown origin) at 1 uM by mobility shift microfluidics platform based assay relative to control
[2] = biological target: Serine/threonine-protein kinase MARK1 (Homo sapiens) (UniProt Q9P0L2); test: Inhibition of MARK1 (unknown origin) at 1 uM by mobility shift microfluidics platform based assay relative to control
[3] = biological target: Phosphorylase b kinase gamma catalytic chain, skeletal muscle/heart isoform (Homo sapiens) (UniProt Q16816); test: Inhibition of PHK-gamma1 (unknown origin) at 1 uM by mobility shift microfluidics platform based assay relative to control
[4] = biological target: Serine/threonine-protein kinase pim-3 (Homo sapiens) (UniProt Q86V86); test: Inhibition of PIM3 (unknown origin) at 1 uM by mobility shift microfluidics platform based assay relative to control
[5] = biological target: Calcium/calmodulin-dependent protein kinase type 1 (Homo sapiens) (UniProt Q14012); test: Inhibition of CAMK1A (unknown origin) at 1 uM by mobility shift microfluidics platform based assay relative to control
[6] = biological target: Insulin receptor (Homo sapiens) (UniProt P06213); test: Inhibition of INSR (unknown origin) at 1 uM by mobility shift microfluidics platform based assay relative to control
[7] = biological target: Rho-associated protein kinase 1 (Homo sapiens) (UniProt Q13464); test: Inhibition of ROCK1 (unknown origin) at 1 uM by mobility shift microfluidics platform based assay relative to control
[8] = biological target: Cytoplasmic tyrosine-protein kinase BMX (Homo sapiens) (UniProt P51813); test: Inhibition of BMX (unknown origin) at 1 uM by mobility shift microfluidics platform based assay relative to control
[9] = biological target: Fibroblast growth factor receptor 3 (Homo sapiens) (UniProt P22607); test: Inhibition of FGFR3 (unknown origin) at 1 uM by mobility shift microfluidics platform based assay relative to control
[10] = biological target: Testis-specific serine/threonine-protein kinase 2 (Homo sapiens) (UniProt Q96PF2); test: Inhibition of TSSK2 (unknown origin) at 1 uM by mobility shift microfluidics platform based assay relative to control
[11] = biological target: Ephrin type-A receptor 4 (Homo sapiens) (UniProt P54764); test: Inhibition of EPH-A4 (unknown origin) at 1 uM by mobility shift microfluidics platform based assay relative to control
[12] = biological target: Discoidin domain-containing receptor 2 (Homo sapiens) (UniProt Q16832); test: Inhibition of DDR2 (unknown origin) at 1 uM by mobility shift microfluidics platform based assay relative to control
[13] = biological target: Serine/threonine-protein kinase N1 (Homo sapiens) (UniProt Q16512); test: Inhibition of PKN1 (unknown origin) at 1 uM by mobility shift microfluidics platform based assay relative to control
[14] = biological target: Tyrosine-protein kinase ITK/TSK (Homo sapiens) (UniProt Q08881); test: Inhibition of ITK (unknown origin) at 1 uM by mobility shift microfluidics platform based assay relative to control
[15] = biological target: Inhibitor of nuclear factor kappa-B kinase subunit epsilon (Homo sapiens) (UniProt Q14164); test: Inhibition of IKK-epsilon (unknown origin) at 1 uM by mobility shift microfluidics platform based assay relative to control
[16] = biological target: Dual specificity tyrosine-phosphorylation-regulated kinase 3 (Homo sapiens) (UniProt O43781); test: Inhibition of DYRK3 (unknown origin) at 1 uM by mobility shift microfluidics platform based assay relative to control
[17] = biological target: Ribosomal protein S6 kinase beta-1 (Homo sapiens) (UniProt P23443); test: Inhibition of P70S6K1 (unknown origin) at 1 uM by mobility shift microfluidics platform based assay relative to control
[18] = biological target: Mitogen-activated protein kinase kinase kinase kinase 2 (Homo sapiens) (UniProt Q12851); test: Inhibition of MAP4K2 (unknown origin) at 1 uM by mobility shift microfluidics platform based assay relative to control
[19] = biological target: Tyrosine-protein kinase JAK1 (Homo sapiens) (UniProt P23458); test: Inhibition of JAK1 (unknown origin) at 1 uM by mobility shift microfluidics platform based assay relative to control
[20] = biological target: Serine/threonine-protein kinase D2 (Homo sapiens) (UniProt Q9BZL6); test: Inhibition of PRKD2 (unknown origin) at 1 uM by mobility shift microfluidics platform based assay relative to control
[21] = biological target: Protein kinase C beta type (Homo sapiens) (UniProt P05771); test: Inhibition of PKC-beta1 (unknown origin) at 1 uM by mobility shift microfluidics platform based assay relative to control
[22] = biological target: NUAK family SNF1-like kinase 1 (Homo sapiens) (UniProt O60285); test: Inhibition of ARK5 (unknown origin) at 1 uM by mobility shift microfluidics platform based assay relative to control
[23] = biological target: Mitogen-activated protein kinase kinase kinase 7 (Homo sapiens) (UniProt O43318); test: Inhibition of TAK1 (unknown origin) at 1 uM by mobility shift microfluidics platform based assay relative to control
[24] = biological target: Casein kinase I isoform epsilon (Homo sapiens) (UniProt P49674); test: Inhibition of CK1-epsilon (unknown origin) at 1 uM by mobility shift microfluidics platform based assay relative to control
[25] = biological target: MAP kinase-activated protein kinase 3 (Homo sapiens) (UniProt Q16644); test: Inhibition of MAPKAPK3 (unknown origin) at 1 uM by mobility shift microfluidics platform based assay relative to control
[26] = biological target: Vascular endothelial growth factor receptor 2 (Homo sapiens) (UniProt P35968); test: Inhibition of KDR (unknown origin) at 1 uM by mobility shift microfluidics platform based assay relative to control
[27] = biological target: Mitogen-activated protein kinase 3 (Homo sapiens) (UniProt P27361); test: Inhibition of MAPK3 (unknown origin) at 1 uM by mobility shift microfluidics platform based assay relative to control
[28] = biological target: Platelet-derived growth factor receptor beta (Homo sapiens) (UniProt P09619); test: Inhibition of PDGFR-beta (unknown origin) at 1 uM by mobility shift microfluidics platform based assay relative to control
[29] = biological target: Tyrosine-protein kinase Fyn (Homo sapiens) (UniProt P06241); test: Inhibition of FYN (unknown origin) at 1 uM by mobility shift microfluidics platform based assay relative to control
[30] = biological target: Serine/threonine-protein kinase 38-like (Homo sapiens) (UniProt Q9Y2H1); test: Inhibition of NDR2 (unknown origin) at 1 uM by mobility shift microfluidics platform based assay relative to control
[31] = biological target: G protein-coupled receptor kinase 6 (Homo sapiens) (UniProt P43250); test: Inhibition of GRK6 (unknown origin) at 1 uM by mobility shift microfluidics platform based assay relative to control
[32] = biological target: Serine/threonine-protein kinase Nek9 (Homo sapiens) (UniProt Q8TD19); test: Inhibition of NEK9 (unknown origin) at 1 uM by mobility shift microfluidics platform based assay relative to control
[33] = biological target: Mast/stem cell growth factor receptor Kit (Homo sapiens) (UniProt P10721); test: Inhibition of KIT (unknown origin) at 1 uM by mobility shift microfluidics platform based assay relative to control
[34] = biological target: Cyclin-dependent kinase 5 (Homo sapiens) (UniProt Q00535); test: Inhibition of CDK5 (unknown origin) at 1 uM by mobility shift microfluidics platform based assay relative to control

Sequence of Inhibitor of nuclear factor kappa-B kinase subunit epsilon (Homo sapiens) (Q14164 whole entry): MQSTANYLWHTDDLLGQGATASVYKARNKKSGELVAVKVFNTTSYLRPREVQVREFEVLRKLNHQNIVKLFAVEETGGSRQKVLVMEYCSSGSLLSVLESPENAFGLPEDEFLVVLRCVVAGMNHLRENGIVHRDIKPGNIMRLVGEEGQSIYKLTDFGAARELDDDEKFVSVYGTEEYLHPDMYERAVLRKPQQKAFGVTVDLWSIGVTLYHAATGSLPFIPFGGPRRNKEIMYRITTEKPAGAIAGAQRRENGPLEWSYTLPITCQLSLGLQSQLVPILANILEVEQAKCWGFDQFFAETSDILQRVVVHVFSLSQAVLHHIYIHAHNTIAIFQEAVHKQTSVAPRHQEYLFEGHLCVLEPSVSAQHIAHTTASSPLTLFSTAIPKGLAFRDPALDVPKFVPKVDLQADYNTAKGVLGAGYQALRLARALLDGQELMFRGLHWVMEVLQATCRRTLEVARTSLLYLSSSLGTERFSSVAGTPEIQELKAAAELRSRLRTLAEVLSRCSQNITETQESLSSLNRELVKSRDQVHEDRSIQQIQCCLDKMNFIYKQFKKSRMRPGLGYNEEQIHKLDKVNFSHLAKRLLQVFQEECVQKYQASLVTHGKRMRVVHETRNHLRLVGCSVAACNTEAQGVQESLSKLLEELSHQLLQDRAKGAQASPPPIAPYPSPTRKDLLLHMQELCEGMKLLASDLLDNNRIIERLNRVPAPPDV
Sequence of Discoidin domain-containing receptor 2 (Homo sapiens) (Q16832 whole entry, the tested form may be a part): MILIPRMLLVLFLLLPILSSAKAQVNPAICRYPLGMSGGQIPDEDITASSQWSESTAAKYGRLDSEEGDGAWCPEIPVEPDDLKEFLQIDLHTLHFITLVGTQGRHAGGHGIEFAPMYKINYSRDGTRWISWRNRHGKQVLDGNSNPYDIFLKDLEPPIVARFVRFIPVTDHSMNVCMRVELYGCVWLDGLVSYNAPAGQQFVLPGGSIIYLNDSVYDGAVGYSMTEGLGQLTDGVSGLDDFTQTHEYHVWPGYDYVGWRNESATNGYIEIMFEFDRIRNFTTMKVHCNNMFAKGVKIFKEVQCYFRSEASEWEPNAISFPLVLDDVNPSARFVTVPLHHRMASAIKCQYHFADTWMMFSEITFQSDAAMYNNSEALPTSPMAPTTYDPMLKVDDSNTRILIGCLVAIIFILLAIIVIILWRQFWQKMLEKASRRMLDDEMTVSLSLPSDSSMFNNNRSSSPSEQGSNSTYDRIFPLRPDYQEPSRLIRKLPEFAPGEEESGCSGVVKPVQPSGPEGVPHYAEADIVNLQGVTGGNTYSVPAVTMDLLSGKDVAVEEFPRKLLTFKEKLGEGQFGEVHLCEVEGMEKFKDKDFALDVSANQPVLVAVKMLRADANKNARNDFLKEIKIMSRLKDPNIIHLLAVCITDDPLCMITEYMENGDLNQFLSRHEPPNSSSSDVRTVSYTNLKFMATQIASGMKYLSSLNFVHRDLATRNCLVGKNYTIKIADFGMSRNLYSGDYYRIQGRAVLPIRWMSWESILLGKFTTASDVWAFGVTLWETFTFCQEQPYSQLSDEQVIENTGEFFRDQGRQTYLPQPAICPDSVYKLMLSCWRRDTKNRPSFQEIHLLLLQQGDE
Sequence of Serine/threonine-protein kinase N1 (Homo sapiens) (Q16512 2-942 limits assumed): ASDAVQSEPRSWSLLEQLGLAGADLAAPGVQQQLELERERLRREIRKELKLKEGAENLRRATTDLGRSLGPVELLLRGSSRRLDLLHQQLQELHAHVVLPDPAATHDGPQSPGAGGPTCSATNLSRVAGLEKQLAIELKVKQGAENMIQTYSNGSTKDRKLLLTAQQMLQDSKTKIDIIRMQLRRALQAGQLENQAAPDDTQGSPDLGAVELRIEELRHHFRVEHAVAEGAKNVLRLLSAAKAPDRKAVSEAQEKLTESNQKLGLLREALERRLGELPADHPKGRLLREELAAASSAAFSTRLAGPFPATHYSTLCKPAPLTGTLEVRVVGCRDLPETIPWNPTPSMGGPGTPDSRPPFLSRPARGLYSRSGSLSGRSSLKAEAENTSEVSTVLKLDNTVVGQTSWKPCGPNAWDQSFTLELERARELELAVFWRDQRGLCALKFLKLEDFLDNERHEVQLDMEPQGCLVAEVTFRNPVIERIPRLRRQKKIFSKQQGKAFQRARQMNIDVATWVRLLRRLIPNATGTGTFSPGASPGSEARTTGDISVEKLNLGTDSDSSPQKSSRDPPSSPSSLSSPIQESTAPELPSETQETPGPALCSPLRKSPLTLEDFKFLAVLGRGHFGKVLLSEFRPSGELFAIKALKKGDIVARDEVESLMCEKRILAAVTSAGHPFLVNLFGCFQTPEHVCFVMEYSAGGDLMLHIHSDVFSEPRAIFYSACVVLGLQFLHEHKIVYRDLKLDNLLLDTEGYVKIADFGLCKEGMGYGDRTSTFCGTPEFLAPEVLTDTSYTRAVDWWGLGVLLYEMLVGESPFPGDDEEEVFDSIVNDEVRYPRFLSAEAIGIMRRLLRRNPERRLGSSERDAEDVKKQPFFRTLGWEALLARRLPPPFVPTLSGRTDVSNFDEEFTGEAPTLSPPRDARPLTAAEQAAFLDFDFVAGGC
Sequence of Serine/threonine-protein kinase MARK1 (Homo sapiens) (Q9P0L2 whole entry, looked up, canonical isoform): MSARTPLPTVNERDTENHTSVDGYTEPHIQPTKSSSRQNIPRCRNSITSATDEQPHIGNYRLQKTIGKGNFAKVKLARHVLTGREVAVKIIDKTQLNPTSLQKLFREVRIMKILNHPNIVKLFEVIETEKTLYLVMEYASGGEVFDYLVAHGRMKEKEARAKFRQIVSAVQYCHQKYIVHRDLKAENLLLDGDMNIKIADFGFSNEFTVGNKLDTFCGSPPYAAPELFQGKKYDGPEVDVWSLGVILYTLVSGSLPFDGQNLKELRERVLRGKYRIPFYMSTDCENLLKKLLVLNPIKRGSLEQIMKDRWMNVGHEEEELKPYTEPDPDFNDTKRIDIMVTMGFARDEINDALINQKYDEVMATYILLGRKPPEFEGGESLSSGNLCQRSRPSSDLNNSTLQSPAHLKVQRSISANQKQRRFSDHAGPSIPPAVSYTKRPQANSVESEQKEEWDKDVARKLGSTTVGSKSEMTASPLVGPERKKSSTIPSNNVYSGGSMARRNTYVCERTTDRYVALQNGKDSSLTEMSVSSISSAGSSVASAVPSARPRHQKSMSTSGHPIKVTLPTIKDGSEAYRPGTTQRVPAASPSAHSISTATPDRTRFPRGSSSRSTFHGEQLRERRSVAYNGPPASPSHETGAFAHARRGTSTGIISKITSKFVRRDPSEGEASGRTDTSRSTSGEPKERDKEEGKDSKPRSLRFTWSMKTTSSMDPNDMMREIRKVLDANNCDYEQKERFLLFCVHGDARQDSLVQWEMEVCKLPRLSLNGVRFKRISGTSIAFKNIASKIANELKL
Sequence of Platelet-derived growth factor receptor beta (Homo sapiens) (P09619 whole entry): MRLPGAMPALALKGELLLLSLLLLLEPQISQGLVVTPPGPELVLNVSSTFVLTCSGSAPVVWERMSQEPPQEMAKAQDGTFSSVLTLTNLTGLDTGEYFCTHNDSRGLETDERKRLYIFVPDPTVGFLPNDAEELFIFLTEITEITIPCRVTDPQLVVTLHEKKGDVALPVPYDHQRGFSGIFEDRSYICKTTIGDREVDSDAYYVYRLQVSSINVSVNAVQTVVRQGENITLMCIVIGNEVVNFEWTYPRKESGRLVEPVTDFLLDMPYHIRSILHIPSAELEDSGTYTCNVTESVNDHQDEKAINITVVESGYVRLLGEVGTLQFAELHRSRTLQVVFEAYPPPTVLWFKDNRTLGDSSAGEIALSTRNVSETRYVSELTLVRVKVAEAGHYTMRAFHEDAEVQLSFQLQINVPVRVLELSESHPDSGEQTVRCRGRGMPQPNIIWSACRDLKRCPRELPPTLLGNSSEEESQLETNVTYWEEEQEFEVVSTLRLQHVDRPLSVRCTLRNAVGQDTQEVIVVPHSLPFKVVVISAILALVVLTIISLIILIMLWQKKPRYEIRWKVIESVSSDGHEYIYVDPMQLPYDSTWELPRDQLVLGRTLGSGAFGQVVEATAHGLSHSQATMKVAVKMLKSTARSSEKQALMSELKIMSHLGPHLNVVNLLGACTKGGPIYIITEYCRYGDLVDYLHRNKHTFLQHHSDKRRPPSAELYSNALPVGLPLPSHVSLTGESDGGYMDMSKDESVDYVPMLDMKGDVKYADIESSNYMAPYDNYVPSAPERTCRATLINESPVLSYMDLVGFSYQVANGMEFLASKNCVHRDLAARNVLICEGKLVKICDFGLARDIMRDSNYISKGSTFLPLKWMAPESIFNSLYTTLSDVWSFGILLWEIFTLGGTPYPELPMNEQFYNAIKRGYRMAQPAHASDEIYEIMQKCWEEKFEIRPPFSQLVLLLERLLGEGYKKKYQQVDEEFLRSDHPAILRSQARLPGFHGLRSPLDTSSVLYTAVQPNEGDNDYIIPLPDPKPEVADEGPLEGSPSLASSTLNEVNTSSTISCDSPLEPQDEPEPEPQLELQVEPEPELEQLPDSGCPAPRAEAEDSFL
Sequence of NUAK family SNF1-like kinase 1 (Homo sapiens) (O60285 whole entry): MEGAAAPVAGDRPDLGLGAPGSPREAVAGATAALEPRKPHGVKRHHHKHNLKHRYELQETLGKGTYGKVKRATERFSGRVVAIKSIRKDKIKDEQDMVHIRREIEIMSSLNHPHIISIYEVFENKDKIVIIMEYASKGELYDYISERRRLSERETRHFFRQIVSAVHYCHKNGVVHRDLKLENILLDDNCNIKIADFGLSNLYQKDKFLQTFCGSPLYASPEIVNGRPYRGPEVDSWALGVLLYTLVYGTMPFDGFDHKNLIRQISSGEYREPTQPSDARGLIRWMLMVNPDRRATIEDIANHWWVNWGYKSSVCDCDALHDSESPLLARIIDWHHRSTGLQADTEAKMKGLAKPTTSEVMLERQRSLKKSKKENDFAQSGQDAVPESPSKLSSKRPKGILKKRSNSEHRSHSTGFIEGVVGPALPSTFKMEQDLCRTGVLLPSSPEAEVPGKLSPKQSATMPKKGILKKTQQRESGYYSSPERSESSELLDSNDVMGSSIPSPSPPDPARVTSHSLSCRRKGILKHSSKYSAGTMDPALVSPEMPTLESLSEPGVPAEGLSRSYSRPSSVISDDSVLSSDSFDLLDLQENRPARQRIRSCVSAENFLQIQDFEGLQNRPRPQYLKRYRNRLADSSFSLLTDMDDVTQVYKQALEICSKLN

inhibition [1] [%]	inhibition [2] [%]	inhibition [3] [%]	inhibition [4] [%]	inhibition [5] [%]	inhibition [6] [%]	inhibition [7] [%]	inhibition [8] [%]	inhibition [9] [%]	inhibition [10] [%]	inhibition [11] [%]	inhibition [12] [%]	inhibition [13] [%]	inhibition [14] [%]	inhibition [15] [%]	inhibition [16] [%]	inhibition [17] [%]	inhibition [18] [%]	inhibition [19] [%]	inhibition [20] [%]	SMILES	other results
0	1	-3	0	2	12	5	98	52	-10	99	93	-2	23	17	7	5	67	97	1	CC(C)n1nc(C#Cc2cccc(NC(=O)c3cccc(C(F)(F)F)c3)c2)c2c(N)ncnc21	inhibition [21]: -3%; inhibition [22]: 14%; inhibition [23]: 62%; inhibition [24]: 27%; inhibition [25]: 13%; inhibition [26]: 109%; inhibition [27]: 1%; inhibition [28]: 100%; inhibition [29]: 101%; inhibition [30]: 1%; inhibition [31]: -9%; inhibition [32]: 2%; inhibition [33]: 98%; inhibition [34]: 2%
-1	-2	10	1	1	5	1	36	34	1	95	96	6	10	8	1	1	24	-3	2	CC(C)n1nc(C#Cc2cccc3cc(-c4cccc(C(F)(F)F)c4)ncc23)c2c(N)ncnc21	inhibition [21]: 2%; inhibition [22]: 1%; inhibition [23]: 5%; inhibition [24]: 8%; inhibition [25]: 3%; inhibition [26]: 98%; inhibition [27]: 1%; inhibition [28]: 71%; inhibition [29]: 85%; inhibition [30]: -1%; inhibition [31]: 3%; inhibition [32]: -1%; inhibition [33]: 97%; inhibition [34]: 3%
